For one assay, the system named is non-muscle actin. The experiment in a line: Actin Polymerization Inhibition Assay (Actin Polymerization Biochem Kit, pyrene actin fluorescence). Type of assay: biochemical. The note with it: inhibition of actin polymerization (pyrene-labeled actin fluorescence increase) at standard test concentration of 10 uM. As for the experimental part: The quantative effects of the test compounds on the kinetics of actin polymerization were determined using a non-muscle actin polymerization kit, Actin Polymerization Biochem Kit, according to the instructions of the manufacturer (Cytoskeleton Inc; Denver, Colo.). This assay evaluates the fluorescence intensity of pyrene actin, which is greater for polymeric actin than for monomeric actin. The ability of the test compounds to inhibit actin assembly was determined by measuring their ability to inhibit this increase in the fluorescence intensity of the pyrene-labeled actin. Results were expressed as the percent inhibition measured at a standard test concentration of 10 uM.

The next assay deals with NIH/3T3 cells. The experiment in a line: NIH/3T3 Cell Morphology Assay (phalloidin staining, degree of actin disruption). It is filed as cell-based. The note with it: 30 minutes at 37° C., 10 nM to 100 uM tested, TRITC-phalloidin imaging. As for the experimental part: NIH/3T3 cells were grown in DMEM-H containing glutamine and 10% Colorado Calf Serum. Cells were passaged regularly prior to reaching confluence. Eighteen to 24 hours prior to experimentation, the cells were plated onto Poly-L-Lysine-coated glass coverslips. On the day of experimentation, the cell culture medium was removed and was replaced with medium containing from 10 nM to 100 uM of the test compound, and the cells were incubated for 30 minutes at 37° C. The culture medium was then removed and the cells were washed with warmed PBS and fixed for 10 minutes with warmed 4% paraformaldehyde. The cells were permeabilized with 0.5% Triton-X, stained with TRITC-conjugated phalloidin and imaged using a Nikon Eclipse E600 epifluorescent microscope to determine the degree of actin disruption. Results were expressed as the concentration at which complete disruption of the actin cytoskeleton was observed.

The results in this text go back to patent publication US8039465B2, “Cytoskeletal active compounds, composition and use” (priority 2005, dated 2011).

Consider `C=CCCC[C@@H]1C[C@@H](OC(=O)/C=C(/C)CCC=C)C[C@](O)([C@@H]2CSC(=O)N2)O1` [Compound 1, (Z)-((2R,4R,6R)-2-Hydroxy-2-((R)-2-oxothiazolidin-4-yl)-6-(pent-4-enyl)-tetrahydro-2H-pyran-4-yl) 3-Methylhepta-2,6-dienoate], for which, in the assay with non-muscle actin, the “Percent inhibition at 10 uM” value amounted to 52.3%.

Regarding `C=CCCC[C@@H]1C[C@@H](NC(=O)/C=C(/C)CCC=C)C[C@](O)([C@@H]2CSC(=O)N2)O1` [Compound 1a, (Z)-N-((2R,4R,6R)-2-Hydroxy-2-((R)-2-oxothiazolidin-4-yl)-6-(pent-4-enyl)-tetrahydro-2H-pyran-4-yl)-3-methylhepta-2,6-dienamide], the “Percent inhibition at 10 uM” value in the assay with non-muscle actin is reported as 32.4%. Still for that read-out and setting: with `C=CCCC[C@@H]1C[C@@H](OC(=O)c2ccccc2)C[C@](O)([C@@H]2CSC(=O)N2)O1` [Compound 4, (2R,4R,6R)-2-Hydroxy-2-((R)-2-oxothiazolidin-4-yl)-6-(pent-4-enyl)-tetrahydro-2H-pyran-4-yl Benzoate] the figure was 52.0%. The same measure, in the same setting: with `C=CCCC[C@@H]1C[C@@H](OC(=O)c2ccc(OC)cc2)C[C@](O)([C@@H]2CSC(=O)N2)O1` [Compound 4a, (2R,4R,6R)-2-Hydroxy-2-((R)-2-oxothiazolidin-4-yl)-6-(pent-4-enyl)-tetrahydro-2H-pyran-4-yl 4-Methoxybenzoate] the figure was 42.2%.

For the compound `C=CCCC[C@@H]1C[C@@H](OC(=O)c2ccc(S(C)(=O)=O)cc2)C[C@](O)([C@@H]2CSC(=O)N2)O1` [Compound 4b, (2R,4R,6R)-2-Hydroxy-2-((R)-2-oxothiazolidin-4-yl)-6-(pent-4-enyl)-tetrahydro-2H-pyran-4-yl 4-(Methylsulfonyl)benzoate], the “Percent inhibition at 10 uM” value in the assay with non-muscle actin is given as 45.6%. With `C/C1=C/C(=O)O[C@@H]2C[C@@H](CCC/C=C\CC1)O[C@@](O)([C@@H]1CSC(=O)N1)C2` [Compound 8, (R)-4-((1R,4Z,8Z,13R,15R)-15-Hydroxy-5-methyl-3-oxo-2,14-dioxa-bicyclo[11.3.1]heptadeca-4,8-dien-15-yl)thiazolidin-2-one], the “Percent inhibition at 10 uM” value with non-muscle actin was 69.9%. In addition, the “Concentration giving complete actin disruption” value in the assay on NIH/3T3 cells is 5 µM. In the case of `C/C1=C/C(=O)O[C@@H]2C[C@@H](CCC/C=C/CC1)O[C@@](O)([C@@H]1CSC(=O)N1)C2` [Compound 8a, (R)-4-((1R,4Z,8E,13R,15R)-15-Hydroxy-5-methyl-3-oxo-2,14-dioxa-bicyclo[11.3.1]heptadeca-4,8-dien-15-yl)thiazolidin-2-one], the “Percent inhibition at 10 uM” value in the assay with non-muscle actin stood at 67.2%. For the same compound, the “Concentration giving complete actin disruption” value in the assay with NIH/3T3 cells is 15 µM. The corresponding values for `C/C1=C/C(=O)O[C@@H]2C[C@@H](CC[C@H](C)/C=C/CC1)O[C@@](O)([C@@H]1CSC(=O)N1)C2` [Compound 8b, (R)-4-((1R,4Z,8E,10S,13R,15R)-15-Hydroxy-5,10-dimethyl-3-oxo-2,14-dioxa-bicyclo[11.3.1]heptadeca-4,8-dien-15-yl)thiazolidin-2-one] are 61.7% and 25 µM. For `C/C1=C/C(=O)N[C@@H]2C[C@@H](CCC/C=C\CC1)O[C@@](O)([C@@H]1CSC(=O)N1)C2` [Compound 8c, (1R,4Z,8Z,13R,15R)-15-Hydroxy-5-methyl-15-((R)-2-oxothiazolidin-4-yl)-14-oxa-2-aza-bicyclo[11.3.1]heptadeca-4,8-dien-3-one], the “Percent inhibition at 10 uM” value in the assay with non-muscle actin came out at 44.9%. As to `C/C1=C/C(=O)O[C@@H]2C[C@@H](CCCCCCC1)O[C@@](O)([C@@H]1CSC(=O)N1)C2` [Compound 10, (R)-4-((1R,13R,15R,Z)-15-Hydroxy-5-methyl-3-oxo-2,14-dioxa-bicyclo[11.3.1]heptadec-4-en-15-yl)thiazolidin-2-one], the “Percent inhibition at 10 uM” value in the assay on non-muscle actin amounted to 44.1%.

In the case of `O=C1CCCC/C=C\CCC[C@@H]2C[C@H](C[C@](O)([C@@H]3CSC(=O)N3)O2)O1` [Compound 10a, (R)-4-((1R,13R,15R,Z)-15-Hydroxy-3-oxo-2,14-dioxa-bicyclo[11.3.1]heptadec-8-en-15-yl)thiazolidin-2-one], in the assay with non-muscle actin, the “Percent inhibition at 10 uM” value came to 14.0%. As for `O=C1CCCCCCCCC[C@@H]2C[C@H](C[C@](O)([C@@H]3CSC(=O)N3)O2)O1` [Compound 10b, (R)-4-((1R,13R,15R)-15-Hydroxy-3-oxo-2,14-dioxa-bicyclo[11.3.1]heptadecan-15-yl)thiazolidin-2-one], the “Percent inhibition at 10 uM” value in the assay on non-muscle actin turned out to be 21.8%. For the compound `O=C1CCCCC/C=C/CCC[C@@H]2C[C@H](C[C@](O)([C@@H]3CSC(=O)N3)O2)O1` [Compound 10c, (R)-4-((1R,14R,16R,E)-16-Hydroxy-3-oxo-2,15-dioxa-bicyclo[12.3.1]octadec-9-en-16-yl)thiazolidin-2-one], the “Percent inhibition at 10 uM” value in the assay on non-muscle actin was 21.7%. As to `O=C1CCCCCCCCCC[C@@H]2C[C@H](C[C@](O)([C@@H]3CSC(=O)N3)O2)O1` [Compound 10d, (R)-4-((1R,14R,16R)-16-Hydroxy-3-oxo-2,15-dioxa-bicyclo[12.3.1]octadecan-16-yl)thiazolidin-2-one], in the assay on non-muscle actin, the “Percent inhibition at 10 uM” value came out at 10.4%.
